biological target: T1, ATR/ATRIP (Homo sapiens, UniProt Q13535); assay: ATR/ATRIP kinase assay (TR-FRET, p53 phosphorylation); format: biochemical; conditions: Table 1, class symbols; read-out: ATR-ATRIP IC50
T1 construct: human ATR, full length, GenBank ID: NM_001184.3; p53: Sf21 insect cells
Experimental: ATR/ATRIP Kinase Assay—Measurement of ATR/ATRIP Inhibition
The IC50 value was determined by an ATR/ATRIP enzymatic assay. The assay comprises two steps: the enzymatic reaction and the detection step. First, a mixture of ATR/ATRIP protein (Ataxia Telangiectasia and Rad3-related protein/ATR interacting protein), the compound in question at different concentrations, p53 as substrate protein and adenosine triphosphate (ATP) are incubated in assay buffer. ATR phosphorylates p53 at Ser15 and other residues. The amount of phosphorylated p53 is then detected using specific antibodies and the TR-FRET assay technology.
In detail: The ATR/ATRIP enzymatic assay is performed as a TR-FRET-(HTRF™, Cisbio Bioassays) based 384-well assay. In a first step, purified human recombinant ATR/ATRIP (human ATR, full length, GenBank ID: NM_001184.3, and human ATRIP, full length, GenBank ID AF451323.1, co-expressed in a mammalian cell line) is incubated in assay buffer for 15 minutes at 22° C. with test compound at different concentrations or without test compound (as a negative control). The assay buffer contains 25 mM HEPES pH 8.0, 10 mM Mg(CH3COO)2, 1 mM MnCl2, 0.1% BSA, 0.01% Brij® 35, and 5 mM dithiothreitol (DTT). […] Then, in a second step, purified human recombinant cmyc-tagged p53 (human p53, full length, GenBank ID: BC003596, expressed in Sf21 insect cells) and ATP are added and the reaction mixture is incubated for 25-35 minutes, typically 25 minutes, at 22° C. The pharmacologically relevant assay volume is 5 μl. The final concentrations in the assay during incubation of the reaction mixture are 0.3-0.5 nM, typically 0.3 nM, ATR/ATRIP, 50 nM p53, and 0.5 μM ATP. The enzymatic reaction is stopped by the addition of EDTA. […] Following signal development for 2 h the plates are analyzed in an EnVision (PerkinElmer) microplate reader using the TRF mode with laser excitation. […] Data are processed employing the Genedata Screener software. In particular, IC50 values are determined in the usual manner by fitting a dose-response curve to the data points using nonlinear regression analysis.

T1 sequence (Q13535 whole entry): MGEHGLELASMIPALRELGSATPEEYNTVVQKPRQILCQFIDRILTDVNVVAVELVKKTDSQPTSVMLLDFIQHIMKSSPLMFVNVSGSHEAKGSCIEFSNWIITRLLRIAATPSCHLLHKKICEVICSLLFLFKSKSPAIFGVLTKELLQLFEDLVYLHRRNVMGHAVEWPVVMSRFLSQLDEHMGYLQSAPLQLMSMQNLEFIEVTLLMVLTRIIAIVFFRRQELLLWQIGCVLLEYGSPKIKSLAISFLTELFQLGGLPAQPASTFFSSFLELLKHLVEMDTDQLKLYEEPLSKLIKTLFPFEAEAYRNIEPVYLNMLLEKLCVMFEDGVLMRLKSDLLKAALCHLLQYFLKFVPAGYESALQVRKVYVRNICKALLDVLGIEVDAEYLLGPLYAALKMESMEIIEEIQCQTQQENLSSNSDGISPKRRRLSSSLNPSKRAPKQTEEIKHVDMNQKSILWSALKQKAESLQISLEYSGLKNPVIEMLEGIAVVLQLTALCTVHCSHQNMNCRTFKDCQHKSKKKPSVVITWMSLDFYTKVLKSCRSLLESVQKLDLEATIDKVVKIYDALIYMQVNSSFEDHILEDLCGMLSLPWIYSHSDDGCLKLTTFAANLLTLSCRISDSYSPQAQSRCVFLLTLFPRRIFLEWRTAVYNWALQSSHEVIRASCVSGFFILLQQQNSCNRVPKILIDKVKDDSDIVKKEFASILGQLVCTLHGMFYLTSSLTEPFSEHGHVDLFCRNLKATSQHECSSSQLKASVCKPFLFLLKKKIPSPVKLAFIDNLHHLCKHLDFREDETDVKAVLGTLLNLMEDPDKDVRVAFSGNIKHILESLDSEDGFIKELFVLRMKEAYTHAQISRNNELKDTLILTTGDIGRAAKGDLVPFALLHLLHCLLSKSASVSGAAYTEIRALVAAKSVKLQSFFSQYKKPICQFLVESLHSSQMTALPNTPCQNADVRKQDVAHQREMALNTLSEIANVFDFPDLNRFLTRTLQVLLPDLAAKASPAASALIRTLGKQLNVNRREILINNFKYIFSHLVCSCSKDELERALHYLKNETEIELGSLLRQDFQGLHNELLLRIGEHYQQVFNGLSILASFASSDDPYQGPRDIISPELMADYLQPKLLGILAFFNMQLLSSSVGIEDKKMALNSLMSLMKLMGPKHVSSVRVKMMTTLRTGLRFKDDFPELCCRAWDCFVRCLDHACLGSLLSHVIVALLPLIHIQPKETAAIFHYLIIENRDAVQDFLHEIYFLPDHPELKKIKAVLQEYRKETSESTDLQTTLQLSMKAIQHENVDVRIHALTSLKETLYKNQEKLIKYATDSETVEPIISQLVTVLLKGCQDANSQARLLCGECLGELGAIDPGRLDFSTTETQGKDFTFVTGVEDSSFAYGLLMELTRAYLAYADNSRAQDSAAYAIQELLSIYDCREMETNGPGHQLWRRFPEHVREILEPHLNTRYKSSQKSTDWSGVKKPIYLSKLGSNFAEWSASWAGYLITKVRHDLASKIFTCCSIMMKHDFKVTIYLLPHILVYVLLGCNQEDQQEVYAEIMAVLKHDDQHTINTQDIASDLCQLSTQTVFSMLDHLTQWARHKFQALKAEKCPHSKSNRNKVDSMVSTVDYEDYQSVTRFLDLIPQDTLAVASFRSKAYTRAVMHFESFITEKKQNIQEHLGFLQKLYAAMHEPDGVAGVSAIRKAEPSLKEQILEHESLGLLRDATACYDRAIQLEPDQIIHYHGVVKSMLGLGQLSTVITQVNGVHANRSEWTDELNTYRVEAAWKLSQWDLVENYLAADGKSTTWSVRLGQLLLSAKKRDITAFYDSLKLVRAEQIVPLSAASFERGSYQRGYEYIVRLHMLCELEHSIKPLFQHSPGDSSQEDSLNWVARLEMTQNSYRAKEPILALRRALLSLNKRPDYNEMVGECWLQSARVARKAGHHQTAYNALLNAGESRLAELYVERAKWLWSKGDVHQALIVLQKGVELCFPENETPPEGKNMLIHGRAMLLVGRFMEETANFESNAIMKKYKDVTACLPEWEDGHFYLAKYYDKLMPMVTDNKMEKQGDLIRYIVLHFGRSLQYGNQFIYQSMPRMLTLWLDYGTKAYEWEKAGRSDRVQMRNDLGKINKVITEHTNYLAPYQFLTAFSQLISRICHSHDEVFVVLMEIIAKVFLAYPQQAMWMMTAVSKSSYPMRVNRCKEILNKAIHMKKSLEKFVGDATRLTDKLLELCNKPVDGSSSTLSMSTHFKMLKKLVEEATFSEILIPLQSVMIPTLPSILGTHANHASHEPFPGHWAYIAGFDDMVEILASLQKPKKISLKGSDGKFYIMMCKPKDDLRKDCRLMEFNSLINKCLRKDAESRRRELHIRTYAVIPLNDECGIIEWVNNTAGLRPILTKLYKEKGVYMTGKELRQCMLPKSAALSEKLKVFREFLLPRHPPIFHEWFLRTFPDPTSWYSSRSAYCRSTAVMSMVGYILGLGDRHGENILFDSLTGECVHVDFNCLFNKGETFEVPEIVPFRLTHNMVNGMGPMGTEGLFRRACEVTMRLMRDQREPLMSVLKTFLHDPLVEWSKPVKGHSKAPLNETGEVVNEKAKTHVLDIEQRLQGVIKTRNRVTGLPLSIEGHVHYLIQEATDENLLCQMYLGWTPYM
T1 sequence (Q8WXE1 whole entry partner): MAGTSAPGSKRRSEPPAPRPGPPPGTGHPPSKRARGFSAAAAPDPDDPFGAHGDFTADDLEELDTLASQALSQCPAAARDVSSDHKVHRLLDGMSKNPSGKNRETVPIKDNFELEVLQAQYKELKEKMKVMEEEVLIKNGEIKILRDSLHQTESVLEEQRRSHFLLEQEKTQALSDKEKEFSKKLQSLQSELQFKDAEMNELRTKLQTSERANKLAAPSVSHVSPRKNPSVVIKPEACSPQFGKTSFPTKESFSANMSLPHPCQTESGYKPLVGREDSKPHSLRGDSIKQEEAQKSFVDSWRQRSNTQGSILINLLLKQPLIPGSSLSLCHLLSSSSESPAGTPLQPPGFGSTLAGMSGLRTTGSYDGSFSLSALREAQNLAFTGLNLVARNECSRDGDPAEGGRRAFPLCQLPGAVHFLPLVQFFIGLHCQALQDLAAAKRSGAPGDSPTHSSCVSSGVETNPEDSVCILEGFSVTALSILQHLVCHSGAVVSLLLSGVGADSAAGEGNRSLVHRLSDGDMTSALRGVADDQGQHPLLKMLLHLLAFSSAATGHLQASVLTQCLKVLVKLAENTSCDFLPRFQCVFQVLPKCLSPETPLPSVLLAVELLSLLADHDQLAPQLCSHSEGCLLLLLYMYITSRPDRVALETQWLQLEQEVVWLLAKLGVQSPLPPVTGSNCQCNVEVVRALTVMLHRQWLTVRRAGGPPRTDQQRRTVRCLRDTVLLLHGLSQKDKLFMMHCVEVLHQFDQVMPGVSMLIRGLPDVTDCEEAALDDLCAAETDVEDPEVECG

SMILES | IC50 [nM]
CC(CO)NC(=O)c1nc2c(c(C(C)(C)S(C)(=O)=O)n1)OC[C@@H]1COC[C@@H](C)N21 (stereo partly drawn) [A56, (4bS,6R)-1-(1-methanesulfonyl-1-methyl-ethyl)-5-methyl-5,6,8a,9-tetrahydro-8H-7,10-dioxa-2,4,4b-triaza-phenanthrene-3-carboxylic Acid (2-hydroxy-1-methyl-ethyl)-amide] | 500 to 30000
C[C@@H]1COC[C@H]2COc3c(nc(C(=O)Nc4ccnnc4)nc3C(C)(C)S(C)(=O)=O)N21 [A57, (4bS,6R)-1-(1-methanesulfonyl-1-methyl-ethyl)-5-methyl-5,6,8a,9-tetrahydro-8H-7,10-dioxa-2,4,4b-triaza-phenanthrene-3-carboxylic Acid pyridazin-4-ylamide] | 500 to 30000
C[C@@H]1COC[C@H]2COc3c(nc(C(=O)Nc4ncccn4)nc3C(C)(C)S(C)(=O)=O)N21 [A58, (4bS,6R)-1-(1-methanesulfonyl-1-methyl-ethyl)-5-methyl-5,6,8a,9-tetrahydro-8H-7,10-dioxa-2,4,4b-triaza-phenanthrene-3-carboxylic Acid pyrimidin-2-ylamide] | 500 to 30000
C[C@@H]1COC[C@H]2COc3c(nc(NCc4cn[nH]c4)nc3C(C)(C)S(C)(=O)=O)N21 [A65, [(5R,8aS)-1-(1-methanesulfonyl-1-methyl-ethyl)-5-methyl-5,6,8a,9-tetrahydro-8H-7,10-dioxa-2,4,4b-triaza-phenanthren-3-yl]-(1H-pyrazol-4-ylmethyl)-amine] | 500 to 30000
C[C@@H]1COC[C@H]2COc3c(nc(-n4cc(C(N)=O)cn4)nc3C(C)(C)S(C)(=O)=O)N21 [A68, 1-[(S)-1-(1-methanesulfonyl-1-methyl-ethyl)-5-(R)-methyl-5,6,8a,9-tetrahydro-8H-7,10-dioxa-2,4,4b-triaza-phenanthren-3-yl]-1H-pyrazole-4-carboxylic Acid Amide] | 500 to 30000
C[C@@H]1COC[C@H]2COc3c(nc(-n4cc(C#N)c5ccccc54)nc3C(C)(C)S(C)(=O)=O)N21 [A70, 1-[(5R,8aS)-1-(1-methanesulfonyl-1-methyl-ethyl)-5-methyl-5,6,8a,9-tetrahydro-8H-7,10-dioxa-2,4,4b-triaza-phenanthren-3-yl]-1H-indole-3-carbonitrile] | 10 to 100
C[C@@H]1COC[C@H]2COc3c(nc(Nc4cn[nH]c4)nc3C(C)(C)S(C)(=O)=O)N21 [A75, [(5R,8aS)-1-(1-methanesulfonyl-1-methyl-ethyl)-5-methyl-5,6,8a,9-tetrahydro-8H-7,10-dioxa-2,4,4b-triaza-phenanthren-3-yl]-(1H-pyrazol-4-yl)-amine] | 10 to 100
C[C@@H]1COC[C@H]2COc3c(nc(Nc4nc[nH]n4)nc3C(C)(C)S(C)(=O)=O)N21 [A79, [(5R,8aS)-1-(1-methanesulfonyl-1-methyl-ethyl)-5-methyl-5,6,8a,9-tetrahydro-8H-7,10-dioxa-2,4,4b-triaza-phenanthren-3-yl]-(1H[1,2,4]triazol-3-yl)-amine] | 10 to 100
C[C@@H]1COC[C@H]2COc3c(nc(Oc4cn[nH]c4)nc3C(C)(C)S(C)(=O)=O)N21 [A80, (5R,8aS)-1-(1-methanesulfonyl-1-methyl-ethyl)-5-methyl-3-(1H-pyrazol-4-yloxy)-5,6,8a,9-tetrahydro-8H-7,10-dioxa-2,4,4b-triaza-phenanthrene] | 100 to 500
C[C@@H]1COC[C@H]2COc3c(nc(-n4ccc(O)n4)nc3C(C)(C)S(C)(=O)=O)N21 [A82, 1-[(5R,8aS)-1-(1-methanesulfonyl-1-methyl-ethyl)-5-methyl-5,6,8a,9-tetrahydro-8H-7,10-dioxa-2,4,4b-triaza-phenanthren-3-yl]-1H-pyrazol-3-ol] | 10 to 100
COc1cnc2[nH]ccc2c1-c1nc2c(c(C(C)(C)S(C)(=O)=O)n1)OC[C@@H]1COC[C@@H](C)N21 [A88, (10S,14R)-6-(2-methanesulfonylpropan-2-yl)-4-{5-methoxy-1H-pyrrolo[2,3-b]pyridin-4-yl}-14-methyl-8,12-dioxa-1,3,5-triazatricyclo[8.4.0.0^2,7]tetradeca-2,4,6-triene] | 10 to 100
C[C@@H]1COC[C@H]2COc3c(nc(-c4c(C#N)cnc5[nH]ccc45)nc3C(C)(C)S(C)(=O)=O)N21 [A89, 4-[(10S,14R)-6-(2-methanesulfonylpropan-2-yl)-14-methyl-8,12-dioxa-1,3,5-triazatricyclo[8.4.0.0^{2,7}]tetradeca-2,4,6-trien-4-yl]-1H-pyrrolo[2,3-b]pyridine-5-carbonitrile] | 1 to 10

Continued, values first:

IC50 [nM] | SMILES
10 to 100 | C[C@@H]1COC[C@H]2COc3c(nc(-c4ccc(-c5ccn[nH]5)cc4)nc3C(C)(C)S(C)(=O)=O)N21 [A60, (5R,8aS)-1-(1-methanesulfonyl-1-methyl-ethyl)-5-methyl-3-[4-(2H-pyrazol-3-yl)-phenyl]-5,6,8a,9-tetrahydro-8H-7,10-dioxa-2,4,4b-triaza-phenanthrene]
500 to 30000 | C[C@@H]1COC[C@H]2COc3c(nc(-c4ccc(C5(N)COC5)cc4)nc3C(C)(C)S(C)(=O)=O)N21 [A62, 3-{4-[(5R,8aS)-1-(1-methanesulfonyl-1-methyl-ethyl)-5-methyl-5,6,8a,9-tetrahydro-8H-7,10-dioxa-2,4,4b-triaza-phenanthren-3-yl]-phenyl}-oxetan-3-ylamine]
10 to 100 | C[C@@H]1COC[C@H]2COc3c(nc(-c4ccc5cc(N)ncc5c4)nc3C(C)(C)S(C)(=O)=O)N21 [A66, 7-[(5R,8aS)-1-(1-methanesulfonyl-1-methyl-ethyl)-5-methyl-5,6,8a,9-tetrahydro-8H-7,10-dioxa-2,4,4b-triaza-phenanthren-3-yl]-isoquinolin-3-ylamine]
100 to 500 | C[C@@H]1COC[C@H]2COc3c(nc(-c4ccc5c(c4)CCNC5)nc3C(C)(C)S(C)(=O)=O)N21 [A71, (5R,8aS)-1-(1-methanesulfonyl-1-methyl-ethyl)-5-methyl-3-(1,2,3,4-tetrahydro-isoquinolin-6-yl)-5,6,8a,9-tetrahydro-8H-7,10-dioxa-2,4,4b-triaza-phenanthrene]
10 to 100 | C[C@@H]1COC[C@H]2COc3c(nc(-c4ccc5ccncc5c4)nc3C(C)(C)S(C)(=O)=O)N21 [A76, (5R,8aS)-3-isoquinolin-7-yl-1-(1-methanesulfonyl-1-methyl-ethyl)-5-methyl-5,6,8a,9-tetrahydro-8H-7,10-dioxa-2,4,4b-triaza-phenanthrene]
10 to 100 | C[C@@H]1COC[C@H]2COc3c(nc(-c4ccc5ncccc5c4)nc3C(C)(C)S(C)(=O)=O)N21 [A77, (5R,8aS)-1-(1-methanesulfonyl-1-methyl-ethyl)-5-methyl-3-quinolin-6-yl-5,6,8a,9-tetrahydro-8H-7,10-dioxa-2,4,4b-triaza-phenanthrene]
10 to 100 | C[C@@H]1COC[C@H]2COc3c(nc(-c4cccc5c4CS(=O)(=O)N5)nc3C(C)(C)S(C)(=O)=O)N21 [A87, 4-[(10S,14R)-6-(2-methanesulfonylpropan-2-yl)-14-methyl-8,12-dioxa-1,3,5-triazatricyclo[8.4.0.0^{2,7}]tetradeca-2,4,6-trien-4-yl]-1,3-dihydro-2lambda6,1-benzothiazole-2,2-dione]

Reference: patent US10570149B2, “Tricyclic heterocylic derivatives” (MERCK PATENT GMBH, priority 2016, dated 2020)
